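1) Cells in 96-well plates. 2) Compound, 48 h, 5 concentrations. 3) Linear interpolation between surrounding doses. 4) Unreached endpoint = highest concentration. Abbreviation: GI50, concentration required for 50% inhibition of growth. TGI denotes the concentration required for complete inhibition of growth.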

Assay in all cases: DTP human tumour cell line panel, 48 h
The test system of experiment [1] is CCRF-CEM leukemia.
Experiment [2] concerns HCC-2998 colon.
In experiment [3] the test system is HCT-15 colon.
Experiment [4] relates to MDA-MB-231 breast.
Experiment [5] concerns NCI/ADR-RES ovarian.
The subject of experiment [6] is PC-3 prostate.
Experiment [7] concerns RPMI-8226 leukemia.
The test system of experiment [8] is SK-MEL-5 melanoma.
Experiment [9] relates to SR leukemia.
The test system of experiment [10] is T-47D breast.

Usually GI50 stands for the concentration giving 50% growth inhibition. By TGI is commonly meant the concentration at which net growth stops. Low readings indicate more potent growth arrest, high ones less potent growth arrest. Take `O=C1CCc2c(sc3[nH]c(=S)n(-c4cc(C(F)(F)F)cc(C(F)(F)F)c4)c(=O)c23)C1`: the 50% growth inhibitory concentration (GI50) in experiment [1] was 0.349 µM; in experiment [2], 0.509 µM; in experiment [3], 0.338 µM; in experiment [4], 0.336 µM; in experiment [5] it was 0.351 µM; in experiment [6], 0.307 µM. Moreover, the GI50 in experiment [7] is 0.411 µM; in [8], 0.217 µM; in experiment [9], 0.516 µM; in experiment [10], 0.385 µM. Also, the TGI in experiment [1] turned out to be 5.81 µM; in experiment [2] it was 1.91 µM; in [3] it was 1.36 µM; in experiment [4], 1.45 µM; in experiment [5], 11.4 µM; in experiment [6] it was 2.35 µM. Also, the concentration for total growth inhibition (TGI) is 3.03 µM in experiment [7], 0.465 µM in experiment [8], over 100 µM in [9] and 2.46 µM in experiment [10].

Consider `C#C[C@]1(O)CC[C@H]2[C@@H]3CC=C4c5sc(Nc6cc(F)ccc6F)nc5CC[C@]4(C)[C@H]3CC[C@@]21C`, for which the GI50 in experiment [1] is 0.669 µM; in [2], 1.65 µM; in [3], 1.53 µM; in [4], 1.82 µM; in [5], 2.79 µM; in [6], 1.34 µM. Also, the GI50 in experiment [7] was 0.196 µM; in experiment [8], 1.74 µM; in [9] it was 0.568 µM; in experiment [10] it was 2.49 µM. Also, the TGI in experiment [1] stood at 4.81 µM; in [2], 3.19 µM; in experiment [3] it was 4.84 µM; in experiment [4], 4.09 µM; in experiment [5], 13.8 µM; in experiment [6] it was 10.3 µM. The TGI in experiment [7] is 0.934 µM; in [8] it was 3.16 µM; in experiment [9] it was over 100 µM; in experiment [10], 7.69 µM.

For `O=S(=O)(O)O`, the TGI in experiment [1] is 684 µM; in experiment [2] it was 2150 µM; in experiment [3], 1820 µM; in experiment [4], over 1900 µM; in [5], 2360 µM; in [6], 1190 µM. Further, the TGI was 2500 µM in experiment [7], 2200 µM in experiment [8], over 1810 µM in experiment [9] and 1770 µM in experiment [10].

Take `Fc1cccc(F)c1C1SCc2nc3cc(Cl)c(Cl)cc3n21` (stereo not drawn): the TGI in [1], in [2], in experiment [3], in [4], in experiment [5] and in experiment [6] was over 100 µM throughout. In addition, the TGI in experiment [7], in [8], in [9] and in experiment [10] was over 100 µM in each case.

Regarding `COc1cc(-c2nc3ccccc3s2)ccc1OCCCCOc1cc2c(cc1OC)C(=O)N1CCC[C@H]1C=N2`, the concentration for 50% growth inhibition (GI50) in [1] was 0.102 µM; in experiment [2] it was 1.1 µM; in experiment [3], 1.7 µM; in experiment [4], 0.911 µM; in [5], 2.13 µM; in experiment [6] it was 0.785 µM. Besides, the concentration for 50% growth inhibition (GI50) was 0.328 µM in experiment [7], 0.724 µM in experiment [8], 0.212 µM in experiment [9] and 0.407 µM in experiment [10]. Also, the concentration for total growth inhibition (TGI) in [1] was found to be 2.1 µM; in experiment [2], 2.69 µM; in [3] it was 4.46 µM; in experiment [4], 3.09 µM; in experiment [5] it was 6.12 µM; in [6], 2.55 µM. Also, the TGI worked out at 1.44 µM in experiment [7], 2.01 µM in experiment [8], 0.785 µM in experiment [9] and 2.03 µM in experiment [10].

For the molecule `COc1ccccc1/C=C1\COc2ccc(-c3ccccc3)cc2C1=O`, the GI50 in experiment [1] is 2.08 µM; in [2] it was 2.63 µM; in [3], 2.64 µM; in [4] it was 3.66 µM; in experiment [5], 3.66 µM; in experiment [6], 4.28 µM. Moreover, the GI50 is 2.83 µM in experiment [7], 2.19 µM in [8], 1.31 µM in experiment [9] and 2.83 µM in experiment [10]. Moreover, the total growth inhibition concentration (TGI) in experiment [1] is 15.2 µM; in experiment [2] it was 6.92 µM; in experiment [3], 13.1 µM; in [4] it was 17.7 µM; in experiment [5], 23.6 µM; in experiment [6], over 100 µM. The total growth inhibition concentration (TGI) in experiment [7] was over 100 µM; in [8], 7.61 µM; in experiment [9], over 100 µM; in experiment [10], over 100 µM.

Take `COc1ccc(C(=O)Cn2c(C(=O)c3ccccc3)nc3ccccc32)cc1`: the GI50 in experiment [1] was 2.87 µM; in experiment [2], 3.2 µM; in experiment [3] it was 1.24 µM; in experiment [4], 7.38 µM; in [5] it was 1.49 µM; in [6], 4.56 µM. The GI50 in experiment [7] was 3.05 µM; in [8], 2.06 µM; in experiment [9], 0.763 µM; in experiment [10] it was 3.87 µM. The concentration for total growth inhibition (TGI) in experiment [1] is over 58.1 µM; in experiment [2], over 100 µM; in experiment [3], over 100 µM; in experiment [4], over 100 µM; in experiment [6], over 100 µM; in experiment [7], over 28.8 µM. For the same molecule, the concentration for total growth inhibition (TGI) was 6.06 µM in experiment [8] and over 100 µM in experiment [10].

Take `CN(C)c1ccc(Nc2c3ccccc3nc3ccccc23)cc1`: the GI50 in experiment [1] was 1.23 µM; in [2], 1.41 µM; in [3], 0.959 µM; in experiment [4] it was 1.3 µM; in [5] it was 1.12 µM; in experiment [6] it was 1.34 µM. Besides, the GI50 is 0.984 µM in experiment [7], 1.03 µM in [8], 0.297 µM in [9] and 1.56 µM in experiment [10]. For the same molecule, the TGI is 15.7 µM in experiment [1]; 3.93 µM in experiment [2]; 3.49 µM in experiment [3]; 3.32 µM in experiment [4]; 2.93 µM in experiment [5]; 5.41 µM in [6]. The TGI in [7] was 3.9 µM; in experiment [8], 2.2 µM; in experiment [9], 1.35 µM; in experiment [10] it was 4.01 µM.

As for `CN1C(=O)c2ccc3ccccc3c2C1=O`, the concentration for total growth inhibition (TGI) in experiment [1], in [2], in experiment [3], in experiment [4], in [5] and in [6] was over 100 µM throughout. The TGI in experiment [7], in [8], in [9] and in [10] was over 100 µM each time.

For the molecule `COc1ccc(-c2c(C)c(C(=O)O)nc(-c3ccc4c(O)c(OC)c5c(c4n3)=NC(C)(C)N=5)c2N)c(O)c1OC`, the total growth inhibition concentration (TGI) in experiment [1] is 24.4 µM; in [2], 35.7 µM; in [3], over 100 µM; in experiment [4] it was over 100 µM; in [5] it was 58 µM; in [6], over 100 µM. For the same molecule, the concentration for total growth inhibition (TGI) is 86.6 µM in experiment [7], 25.4 µM in experiment [8], 1.94 µM in experiment [9] and over 100 µM in [10].

With `COC(=O)c1c2c(c(C)[n+]([O-])c1C)C(=O)C=C(NCc1ccccc1)C2=O`, the GI50 was 0.668 µM in experiment [1]; 0.432 µM in [2]; 0.426 µM in experiment [3]; 0.326 µM in experiment [4]; 0.453 µM in experiment [5]; 0.379 µM in [6]. For the same molecule, the GI50 was 1.36 µM in [7], 0.206 µM in experiment [8], 0.895 µM in [9] and 0.316 µM in experiment [10]. For the same molecule, the concentration for total growth inhibition (TGI) in [1] was 3.71 µM; in experiment [2], 1.7 µM; in experiment [3], 1.8 µM; in experiment [4], 2.68 µM; in experiment [5], 2.95 µM; in experiment [6], 7.34 µM. Moreover, the TGI in experiment [7] was 4.28 µM; in experiment [8], 0.48 µM; in [9], 5.66 µM; in [10], 1.59 µM.

As for `O=C(NCCN1CCOCC1)OCc1nc2nc(Cl)nc(N3CCOCC3)c2[nH]1`, the GI50 in experiment [1] was 2.9 µM; in experiment [2], 3.77 µM; in experiment [3] it was 3.09 µM; in experiment [4], 2.91 µM; in [5], 0.566 µM; in experiment [6], 3.38 µM. Also, the GI50 in experiment [7] was 0.701 µM; in experiment [8] it was 2.1 µM; in experiment [9] it was 0.728 µM; in experiment [10], over 100 µM. Moreover, the TGI in experiment [1], in experiment [2], in experiment [3], in experiment [4], in [5] and in experiment [6] was over 100 µM throughout. The TGI was over 100 µM in [7], 4.72 µM in experiment [8], over 100 µM in experiment [9] and over 100 µM in [10].
